Values joined by “and” are separate entries in the source; they are usually repeats but may differ in a detail not shown here. Equal values may be shown once. Where a SMILES comes first, the peptide text is derived from it. [ ]: non-standard residue; d: D form. Hyp = O=C(O)[C@@H]1C[C@@H](O)CN1
Test system: TNF-alpha
Test: Example 8 main study Luminex, LPS hPBMCs: TNF-alpha
Assay type: cell-based, human
Conditions: for TNF-alpha Concentration: individual replicates; for TNF-alpha Concentration (pg/ml), Mean: mean of replicates; for LPS-induced TNF-α (in words): at as low as 5 μM, LPS 5 ug/mL 24 hrs
Protocol: Human PBMCs were pretreated with YY-101, YDE-011, YDE-043 or reference compound; Xiidra® at various concentration (ranging from […] to 500 nM) for 2 h before stimulation. An equal volume of 0.5% DMSO was used as a vehicle control. Then, the cells were treated with LPS at 5 ug/ml, which was selected based on the pilot study. The supernatants from treated cells were harvested at 24 h and placed in a 96 well for Luminex cytokine & chemokine profiling using a Luminex 200 multiplex assay (Luminex; R&D system, USA).
The main study arm with triplicate wells per group in a 24-well plate: • 1. Blank • 2. PBMC: 0.5% DMSO • 3. PBMC+LPS (5 ug/ml) • 4. PBMC+YY-101 500 nM • 5. PBMC+YY-101 50 nM • 6. PBMC+YY-101 5 nM • 7. PBMC+YY-101 0.5 nM • 8. PBMC+LPS (5 ug/ml)+Xiidra® 500 nM • 9. PBMC+LPS (5 ug/ml)+Xiidra® 50 nM • 10. PBMC+LPS (5 ug/ml)+Xiidra® 5 nM • 11. PBMC+LPS (5 ug/ml)+Xiidra® 0.5 nM • 12. PBMC+LPS (5 ug/ml)+Xiidra® 0.05 nM • 13. PBMC+LPS (5 ug/ml)+Xiidra® 0.005 nM • 14. PBMC+LPS (5 ug/ml)+YY-101 500 nM • 15. PBMC+LPS (5 ug/ml)+YY-101 50 nM • 16. PBMC+LPS (5 ug/ml)+YY-101 5 nM • 17. PBMC+LPS (5 ug/ml)+YY-101 0.5 nM • 18. PBMC+LPS (5 ug/ml)+YY-101 0.05 nM • 19. PBMC+LPS (5 ug/ml)+YY-101 0.005 nM • 20. PBMC+LPS (5 ug/ml)+YDE-011 500 nM • 21. PBMC+LPS (5 ug/ml)+YDE-011 50 nM • 22. PBMC+LPS (5 ug/ml)+YDE-011 5 nM • 23. PBMC+LPS (5 ug/ml)+YDE-011 0.5 nM • 24. PBMC+LPS (5 ug/ml)+YDE-011 0.05 nM • 25. PBMC+LPS (5 ug/ml)+YDE-011 0.005 nM • 26. PBMC+LPS (5 ug/ml)+YDE-043 500 nM • 27. PBMC+LPS (5 ug/ml)+YDE-043 50 nM • 28. PBMC+LPS (5 ug/ml)+YDE-043 5 nM • 29. PBMC+LPS (5 ug/ml)+YDE-043 0.5 nM • 30. PBMC+LPS (5 ug/ml)+YDE-043 0.05 nM • 31. PBMC+LPS (5 ug/ml)+YDE-043 0.005 nM
Multiplex assay was used to measure 30 cytokines and chemokines. The 1:200 diluted cell supernatant and serial dilution of the standard were dispensed into a 96 well plate at 50 ul/well. Then, the pre-mixed cocktail of antibody-coated magnetic beads was dispensed at 50 ul/well and incubated at room temperature for 2 h in a horizontal orbital microplate shaker at 800±500 rpm. The beads were washed using a magnetic device to prevent loss. The biotin-antibody was dispensed in 50 ul of each well and incubated at room temperature for 1 h in a shaker at 800±500 rpm. After washing, streptavidin-PE was added at 50 ul/well and incubated at room temperature for 30 min in a shaker under the same conditions. Finally, after washing, wash buffer (100 ul/well) was added to the plate and incubated in a shaker for 2 min. The Luminex™ 200 setting were set according to the manufacturer's protocol. The data was calculated with a standard five-parameter logistic nonlinear regression analysis of the data (xPonent software 4.2, USA). Results were presented as concentration (ng/ml or pg/ml).

[1] = PBMC + LPS(5 ug/ml) + test article 0.005 nM
[2] = PBMC + LPS(5 ug/ml) + test article 0.05 nM
[3] = PBMC + LPS(5 ug/ml) + test article 0.5 nM
[4] = PBMC + LPS(5 ug/ml) + test article 5 nM
[5] = PBMC + LPS(5 ug/ml) + test article 50 nM
[6] = PBMC + LPS(5 ug/ml) + test article 500 nM

| SMILES | TNF-alpha Concentration [1] | TNF-alpha Concentration (pg/ml), Mean [1] [pg/mL] | TNF-alpha Concentration [2] | TNF-alpha Concentration (pg/ml), Mean [2] [pg/mL] | TNF-alpha Concentration [3] | TNF-alpha Concentration (pg/ml), Mean [3] [pg/mL] | TNF-alpha Concentration [4] | TNF-alpha Concentration (pg/ml), Mean [4] [pg/mL] | TNF-alpha Concentration [5] | TNF-alpha Concentration (pg/ml), Mean [5] [pg/mL] | TNF-alpha Concentration [6] | TNF-alpha Concentration (pg/ml), Mean [6] [pg/mL] | LPS-induced TNF-α (in words) | TNF-alpha Concentration (PBMC + test article 0.5 nM, no LPS, dilution 200) [pg/mL] | TNF-alpha Concentration (PBMC + test article 5 nM, no LPS, dilution 200) [pg/mL] | TNF-alpha Concentration (PBMC + test article 0.05 uM, no LPS, dilution 200) [pg/mL] | TNF-alpha Concentration (PBMC + test article 50 nM, no LPS, dilution 200) [pg/mL] | TNF-alpha Concentration (PBMC + test article 500 nM, no LPS, dilution 200) [pg/mL] |
| --- | --- | --- | --- | --- | --- | --- | --- | --- | --- | --- | --- | --- | --- | --- | --- | --- | --- | --- |
| CC(C)C[C@H](NC(=O)[C@H](CCC(N)=O)NC(=O)CNC(=O)[C@@H]1C[C@@H](O)CN1)C(=O)NCC(=O)O [YDE-043] (H-[Hyp]GQLG-OH; N-terminus and C-terminus assumed) | 2052.5 pg/mL and 1797.0 pg/mL and 2306.2 pg/mL | 2051.9 | 1181.1 pg/mL and 1539.4 pg/mL and 1474.6 pg/mL | 1398.4 | 1764.9 pg/ml and 1409.7 pg/ml (2×) | 1528.1 | 1442.2 pg/mL and 2052.5 pg/mL and 1474.6 pg/mL | 1656.4 | 2020.6 pg/mL and 1797.0 pg/mL and 1474.6 pg/mL | 1764.1 | 1604.0 pg/mL and 1115.3 pg/mL and 1344.6 pg/mL | 1354.6 | significantly reduced |  |  |  |  |  |
| CC(C)C[C@H](NC(=O)CNC(=O)[C@H](CC(C)C)NC(=O)[C@H](CCC(N)=O)NC(=O)CNC(=O)[C@@H]1C[C@@H](O)CN1)C(=O)N[C@@H](C)C(=O)NCC(=O)N1CCC[C@H]1C(=O)N[C@@H](CCCCN)C(=O)O [YDE-011] (H-[Hyp]GQLGLAGPK-OH) | 2116.1 pg/mL and 1988.8 pg/mL and 1861.0 pg/mL | 1988.6 | 1861.0 pg/ml and 2052.5 pg/ml (2×) | 1988.7 | 1344.6 pg/mL and 1988.8 pg/mL and 1797.0 pg/mL | 1710.1 | 749.3 pg/mL and 1409.7 pg/mL and 1668.5 pg/mL | 1275.8 | 1732.8 pg/mL and 2179.5 pg/mL and 442.1 pg/mL | 1451.5 | 2116.1 pg/mL and 647.8 pg/mL and 1246.7 pg/mL | 1336.9 | significantly reduced |  |  |  |  |  |
| CC(C)C[C@H](NC(=O)CNC(=O)[C@H](CC(=O)O)NC(=O)[C@H](CCC(N)=O)NC(=O)CNC(=O)[C@@H]1C[C@@H](O)CN1)C(=O)N[C@@H](C)C(=O)NCC(=O)N1CCC[C@H]1C(=O)N[C@@H](CCCCN)C(=O)O [YY-101] (H-[Hyp]GQDGLAGPK-OH; N-terminus and C-terminus assumed) | 2871.6 pg/mL and 2369.4 pg/mL and 2179.5 pg/mL | 2473.5 | 1797.0 pg/mL and 2621.2 pg/mL and 2242.9 pg/mL | 2220.4 | 2432.5 pg/mL and 2242.9 pg/mL and 2116.1 pg/mL | 2263.8 | 1988.8 pg/mL and 1925.0 pg/mL and 2242.9 pg/mL | 2052.2 | 1732.8 pg/mL and 1668.5 pg/mL and 1988.8 pg/mL | 1796.7 | 2179.5 pg/mL and 1988.8 pg/mL and 1797.0 pg/mL | 1988.4 | significantly reduced | <7.70 | <7.70 | <7.70 | <7.70 | <7.70 |

Reference: patent US20230146455A1, “TREATMENT OF INFLAMMATORY DISEASES WITH PEPTIDES AND PHARMACEUTICAL COMPOSITIONS” (Yuyu Pharma, Inc., priority 2020, published 2023)
